# From ChEMBL document CHEMBL1148209, “Isolation and structure determination of cryptophycins 38, 326, and 327 from the terrestrial cyanobacterium Nostoc sp. GSV 224” (J Nat Prod, 2004)
# pIC50: −log10 of the molar value.
# Tested on: KB
# Experiment: Cytotoxicity against human KB cells
# Type: functional, cell-based
row,SMILES,pIC50
1,COc1ccc(C[C@H]2NC(=O)/C=C/C[C@@H]([C@H](C)[C@@H]3O[C@H]3c3ccccc3)OC(=O)[C@H](CC(C)C)OC(=O)[C@H](C)CNC2=O)cc1Cl [CRYPTOPHYCIN 38],7.26
2,COc1ccc(C[C@H]2NC(=O)/C=C/C[C@@H]([C@H](C)[C@H]3O[C@H]3c3ccccc3)OC(=O)[C@H](CC(C)C)OC(=O)[C@H](C)CNC2=O)cc1Cl [CRYPTOPHYCIN 39],7.14
3,COc1ccc(C[C@H]2NC(=O)/C=C/C[C@@H]([C@H](C)[C@@H]3O[C@@H]3c3ccccc3)OC(=O)[C@H](CC(C)C)OC(=O)[C@H](C)CNC2=O)cc1Cl [CRYPTOPHYCIN 77],6.18
4,COc1c(Cl)cc(C[C@H]2NC(=O)/C=C/C[C@@H]([C@H](C)[C@H]3O[C@@H]3c3ccccc3)OC(=O)[C@H](CC(C)C)OC(=O)CCNC2=O)cc1Cl [CRYPTOPHYCIN 326],5.94
5,COc1ccc(C[C@H]2NC(=O)/C=C\C[C@@H]([C@H](C)[C@H]3O[C@@H]3c3ccccc3)OC(=O)[C@H](CC(C)C)OC(=O)[C@H](C)CNC2=O)cc1Cl [CRYPTOPHYCIN 327],4.85
